ChEMBL document CHEMBL1201861, “Genomics of Drug Sensitity in Cancer screening data, Wellcome Trust Sanger Institute”

What was measured:
Test in all cases: cells
NCI-N87 = assay type: functional, cell-based, Homo sapiens;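 note: growth inhibition of human NCI-N87 cells, read out with a cell viability assay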
Description: SANGER: Inhibition of human NCI-N87 cell growth in a cell viability assay.

K5 = assay type: functional, cell-based, Homo sapiens
Description: SANGER: Inhibition of human K5 cell growth in a cell viability assay.

DOHH-2 = assay type: functional, cell-based, Homo sapiens;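 note: growth inhibition of human DOHH-2 cells, read out with a cell viability assay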
Description: SANGER: Inhibition of human DOHH-2 cell growth in a cell viability assay.

KURAMOCHI = assay type: functional, cell-based, Homo sapiens;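 note: growth inhibition of KURAMOCHI cells, read out with a cell viability assay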
Description: SANGER: Inhibition of human KURAMOCHI cell growth in a cell viability assay.

ML-2 = assay type: functional, cell-based, Homo sapiens;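 note: growth inhibition of ML-2 cells, measured with a cell viability readout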
Description: SANGER: Inhibition of human ML-2 cell growth in a cell viability assay.

J-RT3-T3-5 = assay type: functional, cell-based, Homo sapiens;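 note: cell viability assay measuring growth inhibition of human J-RT3-T3-5 cells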
Description: SANGER: Inhibition of human J-RT3-T3-5 cell growth in a cell viability assay.

TE-9 = assay type: functional, cell-based, Homo sapiens;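 note: cell growth inhibition, measured with a cell viability readout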
Description: SANGER: Inhibition of human TE-9 cell growth in a cell viability assay.

COLO-668 = assay type: functional, cell-based, Homo sapiens
Description: SANGER: Inhibition of human COLO-668 cell growth in a cell viability assay.

A101D = assay type: functional, cell-based, Homo sapiens;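 note: growth inhibition of the cell line, measured with a viability assay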
Description: SANGER: Inhibition of human A101D cell growth in a cell viability assay.

JVM-2 = assay type: functional, cell-based, Homo sapiens;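 note: growth inhibition of JVM-2 cells determined by a cell viability assay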
Description: SANGER: Inhibition of human JVM-2 cell growth in a cell viability assay.

COR-L88 = assay type: functional, cell-based, Homo sapiens;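 note: growth inhibition of COR-L88 cells, read out with a cell viability assay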
Description: SANGER: Inhibition of human COR-L88 cell growth in a cell viability assay.

KALS-1 = assay type: functional, cell-based, Homo sapiens;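 note: growth inhibition of KALS-1 cells, determined with a cell viability assay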
Description: SANGER: Inhibition of human KALS-1 cell growth in a cell viability assay.

NOMO-1 = assay type: functional, cell-based, Homo sapiens;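 note: growth inhibition of human NOMO-1 cells measured by a cell viability assay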
Description: SANGER: Inhibition of human NOMO-1 cell growth in a cell viability assay.

COLO-684 = assay type: functional, cell-based, Homo sapiens
Description: SANGER: Inhibition of human COLO-684 cell growth in a cell viability assay.

NCI-H1355 = assay type: functional, cell-based, Homo sapiens;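 note: growth inhibition of human NCI-H1355 cells, read out by a cell viability assay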
Description: SANGER: Inhibition of human NCI-H1355 cell growth in a cell viability assay.

CGTH-W-1 = assay type: functional, cell-based, Homo sapiens;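 note: growth inhibition of human CGTH-W-1 cells measured by cell viability assay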
Description: SANGER: Inhibition of human CGTH-W-1 cell growth in a cell viability assay.

SK-UT-1 = assay type: functional, cell-based, Homo sapiens;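 note: growth inhibition of SK-UT-1 cells, measured by a cell viability assay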
Description: SANGER: Inhibition of human SK-UT-1 cell growth in a cell viability assay.

D-247MG = assay type: functional, cell-based, Homo sapiens
Description: SANGER: Inhibition of human D-247MG cell growth in a cell viability assay.

KE-37 = assay type: functional, cell-based, Homo sapiens;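 note: growth inhibition of KE-37 cells, read out with a cell viability assay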
Description: SANGER: Inhibition of human KE-37 cell growth in a cell viability assay.

HH = assay type: functional, cell-based, Homo sapiens
Description: SANGER: Inhibition of human HH cell growth in a cell viability assay.

ONS-76 = assay type: functional, cell-based, Homo sapiens;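 note: growth inhibition of human ONS-76 cells, read out with a cell viability assay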
Description: SANGER: Inhibition of human ONS-76 cell growth in a cell viability assay.

GI-ME-N = assay type: functional, cell-based, Homo sapiens;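 note: growth inhibition of human GI-ME-N cells, read out with a cell viability assay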
Description: SANGER: Inhibition of human GI-ME-N cell growth in a cell viability assay.

NCI-H23 = assay type: functional, cell-based, Homo sapiens;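 note: cell viability assay measuring growth inhibition of NCI-H23 cells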
Description: SANGER: Inhibition of human NCI-H23 cell growth in a cell viability assay.

LS-123 = assay type: functional, cell-based, Homo sapiens
Description: SANGER: Inhibition of human LS-123 cell growth in a cell viability assay.

KNS-42 = assay type: functional, cell-based, Homo sapiens;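 note: growth inhibition of KNS-42 cells, read out with a cell viability assay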
Description: SANGER: Inhibition of human KNS-42 cell growth in a cell viability assay.

DB = assay type: functional, cell-based, Homo sapiens
Description: SANGER: Inhibition of human DB cell growth in a cell viability assay.

TE-12 = assay type: functional, cell-based, Homo sapiens;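 note: growth inhibition of TE-12 cells, read out by a cell viability assay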
Description: SANGER: Inhibition of human TE-12 cell growth in a cell viability assay.

SW684 = assay type: functional, cell-based, Homo sapiens;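 note: growth inhibition of human SW684 cells, measured by a cell viability assay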
Description: SANGER: Inhibition of human SW684 cell growth in a cell viability assay.

C2BBe1 = assay type: functional, cell-based, Homo sapiens;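 note: growth inhibition of C2BBe1 cells, read out through a viability assay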
Description: SANGER: Inhibition of human C2BBe1 cell growth in a cell viability assay.

RPMI-8866 = assay type: functional, cell-based, Homo sapiens
Description: SANGER: Inhibition of human RPMI-8866 cell growth in a cell viability assay.

NCI-H1395 = assay type: functional, cell-based, Homo sapiens;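 note: cell viability assay read-out quantifying reduced proliferation of human NCI-H1395 cells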
Description: SANGER: Inhibition of human NCI-H1395 cell growth in a cell viability assay.

AM-38 = assay type: functional, cell-based, Homo sapiens;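 note: growth inhibition of AM-38 cells of human origin, read out by a cell viability assay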
Description: SANGER: Inhibition of human AM-38 cell growth in a cell viability assay.

BB49-HNC = assay type: functional, cell-based, Homo sapiens;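 note: cell viability assay read-out, reported as inhibition of BB49-HNC cell growth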
Description: SANGER: Inhibition of human BB49-HNC cell growth in a cell viability assay.

EM-2 = assay type: functional, cell-based, Homo sapiens;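 note: growth inhibition of EM-2 cells, read out with a cell viability assay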
Description: SANGER: Inhibition of human EM-2 cell growth in a cell viability assay.

SW 954 = assay type: functional, cell-based, Homo sapiens;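 note: growth inhibition of SW954 human cancer cells, read out as cell viability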
Description: SANGER: Inhibition of human SW954 cell growth in a cell viability assay.

K562 = assay type: functional, cell-based, Homo sapiens
Description: SANGER: Inhibition of human K-562 cell growth in a cell viability assay.

MV4-11 = assay type: functional, cell-based, Homo sapiens, MV-4-11;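 note: cell viability readout measuring growth inhibition of human MV-4-11 cells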
Description: SANGER: Inhibition of human MV-4-11 cell growth in a cell viability assay.

HuTu80 = assay type: functional, cell-based, Homo sapiens, HUTU-80;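 note: growth inhibition of HuTu80 human cells, determined with a cell viability readout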
Description: SANGER: Inhibition of human HUTU-80 cell growth in a cell viability assay.

NB17 = assay type: functional, cell-based, Homo sapiens;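 note: growth inhibition of NB17 cells, read out with a cell viability assay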
Description: SANGER: Inhibition of human NB17 cell growth in a cell viability assay.

NTERA-2-cl-D1 = assay type: functional, cell-based, Homo sapiens;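 note: inhibition of cell growth, measured with a cell viability assay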
Description: SANGER: Inhibition of human NTERA-S-cl-D1 cell growth in a cell viability assay.

OCUB-M = assay type: functional, cell-based, Homo sapiens;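 note: growth inhibition of the cancer cell line, read out through a cell viability assay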
Description: SANGER: Inhibition of human OCUB-M cell growth in a cell viability assay.

TE-10 = assay type: functional, cell-based, Homo sapiens;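 note: growth inhibition of TE-10 cells, measured by a cell viability assay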
Description: SANGER: Inhibition of human TE-10 cell growth in a cell viability assay.

NB5 = assay type: functional, cell-based, Homo sapiens;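 note: growth inhibition of NB5 cells, read out as cell viability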
Description: SANGER: Inhibition of human NB5 cell growth in a cell viability assay.

ES1 = assay type: functional, cell-based, Homo sapiens;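 note: growth inhibition of ES1 cells, read out with a cell viability assay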
Description: SANGER: Inhibition of human ES1 cell growth in a cell viability assay.

COLO-829 = assay type: functional, cell-based, Homo sapiens
Description: SANGER: Inhibition of human COLO-829 cell growth in a cell viability assay.

SK-MEL-1 = assay type: functional, cell-based, Homo sapiens;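 note: growth inhibition of human SK-MEL-1 cells, read out by a cell viability assay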
Description: SANGER: Inhibition of human SK-MEL-1 cell growth in a cell viability assay.

RPMI-8226 = assay type: functional, cell-based, Homo sapiens
Description: SANGER: Inhibition of human RPMI-8226 cell growth in a cell viability assay.

RH-1 = assay type: functional, cell-based, Homo sapiens;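 note: growth inhibition of human RH-1 cells, read out with a cell viability assay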
Description: SANGER: Inhibition of human RH-1 cell growth in a cell viability assay.

CISPLATIN
IC50 (NCI-N87; nci-n87): 33 µM
IC50 (K5; k5): 3.73 µM
IC50 (DOHH-2; dohh-2): 4.23 µM
IC50 (KURAMOCHI; kuramochi): 159 µM
IC50 (ML-2; ml-2): 163 µM
IC50 (J-RT3-T3-5; j-rt3-t3-5): 148 µM
IC50 (TE-9; te-9): 15.4 µM
IC50 (COLO-668; colo-668): 103 µM
IC50 (A101D; a101d): 21.7 µM
IC50 (JVM-2; jvm-2): 568 µM
IC50 (COR-L88; cor-l88): 319 µM
IC50 (KALS-1; kals-1): 71.1 µM
IC50 (NOMO-1; nomo-1): 123 µM
IC50 (COLO-684; colo-684): 29.1 µM
IC50 (NCI-H1355; nci-h1355): 6.63 µM
IC50 (CGTH-W-1; cgth-w-1): 4.55 µM
IC50 (SK-UT-1; sk-ut-1): 12.9 µM
IC50 (D-247MG; d-247mg): 10.8 µM
IC50 (KE-37; ke-37): 31.5 µM
IC50 (HH; hh): 22.5 µM
IC50 (ONS-76; ons-76): 3.95 µM
IC50 (GI-ME-N; gi-me-n): 11 µM
IC50 (NCI-H23; nci-h23): 40 µM
IC50 (LS-123; ls-123): 491 µM
IC50 (KNS-42; kns-42): 20.5 µM
IC50 (DB; db): 2.14 µM
IC50 (TE-12; te-12): 42.6 µM
IC50 (SW684; sw684): 590 µM
IC50 (C2BBe1; c2bbe1): 97 µM
IC50 (RPMI-8866; rpmi-8866): 13.2 µM
IC50 (NCI-H1395; nci-h1395): 43.4 µM
IC50 (AM-38; am-38): 225 µM
IC50 (BB49-HNC; bb49-hnc): 48.2 µM
IC50 (EM-2; em-2): 71.2 µM
IC50 (SW 954; sw 954): 11.1 µM
IC50 (K562; k562): 509 µM
IC50 (MV4-11; mv-4-11): 3.46 µM
IC50 (HuTu80; hutu-80): 467 µM
IC50 (NB17; nb17): 69.4 µM
IC50 (NTERA-2-cl-D1; ntera-2-cl-d1): 0.848 µM
IC50 (OCUB-M; ocub-m): 22.7 µM
IC50 (TE-10; te-10): 158 µM
IC50 (NB5; nb5): 5.48 µM
IC50 (ES1; es1): 1.02 µM
IC50 (COLO-829; colo-829): 7.27 µM
IC50 (SK-MEL-1; sk-mel-1): 14.7 µM
IC50 (RPMI-8226; rpmi-8226): 192 µM
IC50 (RH-1; rh-1): 333 µM

CC(C)c1ccccc1Cc1cc(C(=O)Nc2ccc(S(=O)(=O)c3ccccc3C(C)(C)C)cc2)c(O)c(O)c1O
IC50 (NCI-N87; Homo sapiens, NCI-N87): 2.2 µM
IC50 (K5; Homo sapiens, K5): 1.77 µM
IC50 (KURAMOCHI; Homo sapiens, KURAMOCHI): 1.94 µM
IC50 (TE-9; Homo sapiens, TE-9): 0.225 µM
IC50 (COLO-668; Homo sapiens, COLO-668): 5.1 µM
IC50 (A101D; Homo sapiens, A101D): 0.0875 µM
IC50 (KALS-1; Homo sapiens, KALS-1): 0.253 µM
IC50 (NCI-H1355; Homo sapiens, NCI-H1355): 1.29 µM
IC50 (CGTH-W-1; Homo sapiens, CGTH-W-1): 0.186 µM
IC50 (SK-UT-1; Homo sapiens, SK-UT-1): 0.0287 µM
IC50 (D-247MG; Homo sapiens, D-247MG): 0.936 µM
IC50 (ONS-76; Homo sapiens, ONS-76): 0.325 µM
IC50 (GI-ME-N; Homo sapiens, GI-ME-N): 0.403 µM
IC50 (NCI-H23; Homo sapiens, NCI-H23): 0.348 µM
IC50 (LS-123; Homo sapiens, LS-123): 2.2 µM
IC50 (KNS-42; Homo sapiens, KNS-42): 2.54 µM
IC50 (SW684; Homo sapiens, SW684): 8.83 µM
IC50 (C2BBe1; Homo sapiens, C2BBe1): 0.266 µM
IC50 (NCI-H1395; Homo sapiens, NCI-H1395): 0.612 µM
IC50 (AM-38; Homo sapiens, AM-38): 0.841 µM
IC50 (BB49-HNC; Homo sapiens, BB49-HNC): 2.01 µM
IC50 (SW 954; Homo sapiens, SW 954): 0.467 µM
IC50 (HuTu80; Homo sapiens, HuTu80): 0.087 µM
IC50 (NB17; Homo sapiens, NB17): 1.06 µM
IC50 (NTERA-2-cl-D1; Homo sapiens, NTERA-2-cl-D1): 0.167 µM
IC50 (OCUB-M; Homo sapiens, OCUB-M): 0.243 µM
IC50 (TE-10; Homo sapiens, TE-10): 1.23 µM
IC50 (NB5; Homo sapiens, NB5): 0.423 µM
IC50 (ES1; Homo sapiens, ES1): 0.13 µM
IC50 (COLO-829; Homo sapiens, COLO-829): 0.701 µM
IC50 (RH-1; Homo sapiens, RH-1): 0.158 µM

COc1cc2c(Nc3ccc(NC(=O)c4ccccc4)cc3)ncnc2cc1OCCCN1CCOCC1
IC50 (NCI-N87; Homo sapiens, NCI-N87): > 4 µM
IC50 (K5; Homo sapiens, K5): > 4 µM
IC50 (DOHH-2; Homo sapiens, DOHH-2): 1.4 µM
IC50 (KURAMOCHI; Homo sapiens, KURAMOCHI): > 4 µM
IC50 (ML-2; Homo sapiens, ML-2): > 4 µM
IC50 (J-RT3-T3-5; Homo sapiens, J-RT3-T3-5): > 4 µM
IC50 (TE-9; Homo sapiens, TE-9): > 4 µM
IC50 (COLO-668; Homo sapiens, COLO-668): > 4 µM
IC50 (A101D; Homo sapiens, A101D): > 4 µM
IC50 (JVM-2; Homo sapiens, JVM-2): > 4 µM
IC50 (COR-L88; Homo sapiens, COR-L88): > 4 µM
IC50 (KALS-1; Homo sapiens, KALS-1): > 4 µM
IC50 (NOMO-1; Homo sapiens, NOMO-1): 1.37 µM
IC50 (COLO-684; Homo sapiens, COLO-684): > 4 µM
IC50 (NCI-H1355; Homo sapiens, NCI-H1355): > 4 µM
IC50 (CGTH-W-1; Homo sapiens, CGTH-W-1): 2.62 µM
IC50 (SK-UT-1; Homo sapiens, SK-UT-1): 1.82 µM
IC50 (D-247MG; Homo sapiens, D-247MG): > 4 µM
IC50 (KE-37; Homo sapiens, KE-37): 1.21 µM
IC50 (HH; Homo sapiens, HH): > 4 µM
IC50 (ONS-76; Homo sapiens, ONS-76): > 4 µM
IC50 (GI-ME-N; Homo sapiens, GI-ME-N): > 4 µM
IC50 (NCI-H23; Homo sapiens, NCI-H23): > 4 µM
IC50 (LS-123; Homo sapiens, LS-123): > 4 µM
IC50 (KNS-42; Homo sapiens, KNS-42): > 4 µM
IC50 (DB; Homo sapiens, DB): > 4 µM
IC50 (TE-12; Homo sapiens, TE-12): > 4 µM
IC50 (SW684; Homo sapiens, SW684): > 4 µM
IC50 (C2BBe1; Homo sapiens, C2BBe1): > 4 µM
IC50 (RPMI-8866; Homo sapiens, RPMI-8866): > 4 µM
IC50 (NCI-H1395; Homo sapiens, NCI-H1395): > 4 µM
IC50 (AM-38; Homo sapiens, AM-38): > 4 µM
IC50 (BB49-HNC; Homo sapiens, BB49-HNC): > 4 µM
IC50 (EM-2; Homo sapiens, EM-2): 1.42 µM
IC50 (SW 954; Homo sapiens, SW 954): 0.836 µM
IC50 (K562; Homo sapiens, K562): > 4 µM
IC50 (MV4-11; Homo sapiens, MV4-11): 0.796 µM
IC50 (NB17; Homo sapiens, NB17): > 4 µM
IC50 (NTERA-2-cl-D1; Homo sapiens, NTERA-2-cl-D1): > 4 µM
IC50 (OCUB-M; Homo sapiens, OCUB-M): 2.25 µM
IC50 (TE-10; Homo sapiens, TE-10): > 4 µM
IC50 (NB5; Homo sapiens, NB5): 1.84 µM
IC50 (ES1; Homo sapiens, ES1): 1.77 µM
IC50 (COLO-829; Homo sapiens, COLO-829): 2.64 µM
IC50 (SK-MEL-1; Homo sapiens, SK-MEL-1): > 4 µM
IC50 (RPMI-8226; Homo sapiens, RPMI-8226): > 4 µM
IC50 (RH-1; Homo sapiens, RH-1): > 4 µM
